Test results as given in patent US5827655A (priority 1995, dated 1998).

Key:
[1] = target: T1, MK3 K+ channels (Mus musculus, UniProt P16390); assay: cell-based
T1 construct: The MK3 coding region was inserted into the pSP64T cloning vector; expressed in transfected cells; host or cells: Xenopus oocytes injected with MK3 mRNA (in vitro transcript from pSP64T)

[2] = system: type n K+ channel (human); details: Table I, type n currents, human T cells; read-out: Blockers, half-blocking dose; cited from earlier work
[3] = system: type n K+ channel (mice); details: Table I, type n currents, mouse T cells; read-out: Blockers, half-blocking dose; cited from earlier work

T1 sequence (P16390 whole entry): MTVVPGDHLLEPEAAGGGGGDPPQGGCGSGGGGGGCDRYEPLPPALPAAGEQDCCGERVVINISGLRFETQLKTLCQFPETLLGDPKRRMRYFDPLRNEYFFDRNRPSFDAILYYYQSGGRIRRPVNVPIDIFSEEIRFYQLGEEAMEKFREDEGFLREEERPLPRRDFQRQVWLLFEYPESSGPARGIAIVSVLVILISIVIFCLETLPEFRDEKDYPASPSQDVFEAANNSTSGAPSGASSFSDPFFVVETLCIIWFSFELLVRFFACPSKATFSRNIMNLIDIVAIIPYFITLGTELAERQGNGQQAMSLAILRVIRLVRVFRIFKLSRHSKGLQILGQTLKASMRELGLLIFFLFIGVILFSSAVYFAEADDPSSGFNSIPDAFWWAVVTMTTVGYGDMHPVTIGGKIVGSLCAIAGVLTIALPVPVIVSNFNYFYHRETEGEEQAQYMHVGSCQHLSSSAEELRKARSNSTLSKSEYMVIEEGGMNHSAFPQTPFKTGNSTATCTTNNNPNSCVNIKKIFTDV

CC[N+](CC)(CC)CC [TEA, tetraethylammonium]
Kd ([1]; FIG. 3C, outside-out patch, oocyte injected with MK3 mRNA, read-out: Kd, dose-response curve of drugs blocking MK3 K+ current): 11 mM | IC50 ([1]; Table I, MK3 currents in oocytes, read-out: Blockers, half-blocking dose): 11 mM

Nc1ccncc1 [4-AP, 4-aminopyridine]
IC50 [2]: 0.19 mM | IC50 [3]: […]

Charybdotoxin [CTX]
Block of MK3 channels in oocytes (in words) ([1]; CTX from both sources (C. Miller and M. Garcia)): blocked MK3 channels in oocytes
